This assay addresses Signal transducer and activator of transcription 3 (Homo sapiens) (UniProt P40763). As to the kind of experiment: STAT3 inhibitors in luciferase reporter cells, late-stage follow-up, counter-screen for STAT1 inhibitor project, cell-based, luminescence, dose response (AID 2771). To be noted: STAT3-responsive luciferase reporter cells. (Reporter assays use an easily measured gene product as a stand-in for the process of interest.)

As a reminder, the IC50 is the midpoint of a concentration-inhibition curve.

The source made the active and inactive calls. The rule behind the calls is not given here. Bounds are passed on as bounds.

With `CCC(C)c1ccc(-c2csc(CN3C(=O)c4ccccc4N/C3=C\N3CCN(C)CC3)n2)cc1` (centres undefined), the IC50 is > 55.7 µM (inactive).

Consider `Cc1ccc2oc(=O)cc(CSc3nc(-c4ccccc4)c4ccccc4n3)c2c1`, for which the IC50 is > 55.7 µM (inactive).

Regarding `COc1cc2c(cc1OC)C(=O)N(Cc1coc(-c3ccccc3)n1)C(=CN1CCOCC1)N2`, the IC50 was > 55.7 µM (inactive).

For the compound `CC(=O)c1ccc(S(=O)(=O)N2CCN(C(C(=O)Nc3ccc(C)cc3)c3ccccc3)CC2)cc1` (centres undefined), the IC50 is > 55.7 µM (inactive).

For the compound `NC(=O)c1ccc(S(=O)(=O)N2CCN(C(C(=O)Nc3ccc(F)cc3)c3ccccc3)CC2)cc1` (centres undefined), the IC50 was > 55.7 µM (inactive).

Regarding `CN(C)Cc1nc2ccccc2c(=O)n1Cc1nc(-c2cccc([N+](=O)[O-])c2)cs1`, the IC50 is > 55.7 µM (inactive).

On to `CCOC(=O)Nc1ccc2c(CSc3nc4ccccc4c(=O)[nH]3)cc(=O)oc2c1`, for which the IC50 is > 55.7 µM (inactive).

Regarding `N#Cc1ccccc1S(=O)(=O)N1CCN(C(C(=O)Nc2ccc(F)cc2)c2ccccc2)CC1` (centres undefined), the IC50 was > 55.7 µM (inactive).

`CC(C(=O)Nc1ccccc1)N1CCN(S(=O)(=O)c2ccccc2)CC1` (centres undefined): the IC50 was > 55.7 µM (inactive).

For `O=C(Nc1ccc(Cl)c(C(F)(F)F)c1)C(c1ccccc1)N1CCN(S(=O)(=O)c2ccccc2)CC1` (centres undefined), the IC50 was > 55.7 µM (inactive).

On to `CCOc1ccccc1NC(=O)C(c1ccccc1)N1CCN(S(=O)(=O)c2ccc(F)c(F)c2F)CC1` (centres undefined), for which the IC50 is > 55.7 µM (inactive).

Regarding `CN(Cc1ccccc1N1CCCC1)C(=O)c1nn(-c2ccccc2)c(=O)c2ccccc12`, the IC50 is > 55.7 µM (inactive).

Turning to `CCOc1ccc2oc(=O)cc(CSc3nc4ccccc4c(=O)[nH]3)c2c1`, the IC50 was > 55.7 µM (inactive).

In the case of `CCOC(=O)c1ccc(S(=O)(=O)N2CCN(C(C(=O)Nc3ccc(OC)c(Cl)c3)c3ccccc3)CC2)cc1` (centres undefined), the IC50 is > 55.7 µM (inactive).

As to `CN(C)C(=O)c1nn(-c2ccc(F)cc2)c(=O)c2ccccc12`, the IC50 is > 55.7 µM (inactive).

Take `CCOC(=O)N1CCN(C(=O)c2ccc(-n3c(=S)[nH]c4ccccc4c3=O)cc2)CC1`: the IC50 was > 55.7 µM (inactive).

With `COc1cccc(-c2csc(Cn3c(CN4CCOCC4)nc4ccccc4c3=O)n2)c1`, the IC50 was > 55.7 µM (inactive).

As to `O=C(Nc1ccc(F)cc1)C(c1ccccc1)N1CCN(C(=O)c2ccccc2)CC1` (centres undefined), the IC50 is > 55.7 µM (inactive).

Take `O=c1cc(CSc2nc3ccccc3c(=O)[nH]2)c2ccc(O)cc2o1`: the IC50 is > 55.7 µM (inactive).

Regarding `COC(=O)c1nn(-c2ccc(F)cc2)c(=O)c2ccccc12`, the IC50 was > 55.7 µM (inactive).

Regarding `O=c1c2ccccc2nc(CN2CCOCC2)n1Cc1nc(-c2ccc[nH]2)cs1`, the IC50 was > 55.7 µM (inactive).

Regarding `O=C1c2ccccc2N/C(=C\N2CCOCC2)N1Cc1nc(-c2ccccc2F)cs1`, the IC50 was > 55.7 µM (inactive).

For the compound `COc1ccc(C)cc1NC(=O)C(c1ccccc1)N1CCN(S(=O)(=O)c2ccc(F)cc2)CC1` (centres undefined), the IC50 was > 55.7 µM (inactive).

Regarding `CC(C(=O)Nc1ccc(F)c(F)c1)N1CCN(S(=O)(=O)c2ccc(C(F)(F)F)cc2)CC1` (centres undefined), the IC50 was > 18.6 µM (inactive).

Consider `CCC(C(=O)Nc1ccccc1)N1CCN(S(=O)(=O)c2ccc3c(c2)CCC3)CC1` (centres undefined), for which the IC50 was > 55.7 µM (inactive).

On to `COc1cc2c(cc1OC)C(=O)N(Cc1cc(-c3ccccc3OC)no1)C(=CN1CCOCC1)N2`, for which the IC50 result is “inactive”.

On to `CNC(=O)c1nn(-c2ccc(F)cc2)c(=O)c2ccccc12`, for which the IC50 was > 55.7 µM (inactive).

In the case of `COc1ccc(N2CCN(C(=O)c3ccc(-n4c(=S)[nH]c5ccccc5c4=O)cc3)CC2)cc1`, the IC50 was > 55.7 µM (inactive).

With `CN1CCN(C=C2Nc3ccccc3C(=O)N2Cc2nc(C34CC5CC(CC(C5)C3)C4)cs2)CC1`, the IC50 is > 55.7 µM (inactive).

With `O=C(c1ccc(-n2c(=S)[nH]c3ccccc3c2=O)cc1)N1CCN(c2ccccc2)CC1`, the IC50 was > 55.7 µM (inactive).

Turning to `O=C(c1ccc(-n2c(=S)[nH]c3ccccc3c2=O)cc1)N1CCN(C2CCCCC2)CC1`, the IC50 was > 55.7 µM (inactive).

On to `N#Cc1ccc(S(=O)(=O)N2CCN(C(C(=O)Nc3ccc(F)cc3)c3ccccc3)CC2)cc1` (centres undefined), for which the IC50 was > 55.7 µM (inactive).

Take `Cc1ccc(C)c(NC(=O)C(c2ccccc2)N2CCN(S(=O)(=O)c3ccccc3C#N)CC2)c1` (centres undefined): the IC50 is > 55.7 µM (inactive).

`O=C(Nc1ccc(F)cc1)C(c1ccccc1)N1CCN(S(=O)(=O)c2ccc3c(c2)OCCO3)CC1` (centres undefined): the IC50 was > 55.7 µM (inactive).

Turning to `CN1CCN(Cc2nc3ccccc3c(=O)n2Cc2nc(-c3ccccc3F)cs2)CC1`, the IC50 is > 55.7 µM (inactive).

As to `O=C(Nc1ccc(F)cc1)C(c1ccccc1)N1CCN(S(=O)(=O)c2ccccc2)CC1` (centres undefined), the IC50 was > 55.7 µM (inactive).

On to `O=C(OCC1CCCCC1)c1nn(-c2ccccc2)c(=O)c2ccccc12`, for which the IC50 was > 55.7 µM (inactive).

`Cc1ccc(C)c(S(=O)(=O)N2CCN(C(C(=O)Nc3ccc(F)cc3)c3ccccc3)CC2)c1` (centres undefined): the IC50 was > 55.7 µM (inactive).

As for `Cc1ccc(NC(=O)C(c2ccccc2)N2CCN(S(=O)(=O)c3ccccc3)CC2)cc1` (centres undefined), the IC50 is > 55.7 µM (inactive).

Turning to `Cc1ccc(-n2nc(C(=O)O)c3ccccc3c2=O)cc1Cl`, the IC50 is > 55.7 µM (inactive).

With `O=C(O)c1nn(-c2ccc(F)cc2)c(=O)c2ccccc12`, the IC50 was > 55.7 µM (inactive).

As for `CN1CCN(C(=O)c2ccc(-n3c(=S)[nH]c4ccccc4c3=O)cc2)CC1`, the IC50 was > 55.7 µM (inactive).

Turning to `CN(C)Cc1nc2ccccc2c(=O)n1Cc1nc(C(C)(C)C)cs1`, the IC50 is > 55.7 µM (inactive).

As for `Cc1ccc(-n2nc(C(=O)O)c3ccccc3c2=O)cc1C`, the IC50 is > 55.7 µM (inactive).

In the case of `O=C1c2ccccc2N/C(=C\N2CCOCC2)N1Cc1nc(-c2ccc(F)c(F)c2)cs1`, the IC50 is > 18.6 µM (inactive).

Take `O=C(c1ccc(-n2c(=S)[nH]c3ccccc3c2=O)cc1)N1CCN(C(=O)c2ccco2)CC1`: the IC50 is > 55.7 µM (inactive).

On to `COc1cc2c(cc1OC)C(=O)N(Cc1nnc(-c3ccc(Cl)cc3)o1)C(=CN1CCOCC1)N2`, for which the IC50 is > 55.7 µM (inactive).

In the case of `O=C(Nc1ccc(F)cc1)C(c1ccccc1)N1CCN(S(=O)(=O)c2ccc3ccccc3c2)CC1` (centres undefined), the IC50 is > 55.7 µM (inactive).

In the case of `CCOc1ccc(-c2csc(Cn3c(CN4CCN(C)CC4)nc4ccccc4c3=O)n2)cc1`, the IC50 is > 55.7 µM (inactive).

As for `O=C(c1ccc(-n2c(=S)[nH]c3ccccc3c2=O)cc1)N1CCN(c2ccc(F)cc2)CC1`, the IC50 is > 55.7 µM (inactive).

For `CN1CCN(Cc2nc3ccccc3c(=O)n2Cc2nc(-c3cccc([N+](=O)[O-])c3)cs2)CC1`, the IC50 is > 55.7 µM (inactive).

On to `C=C1NN(c2ccc(C(=O)N3CCC(Cc4ccccc4)CC3)cc2)C(=O)c2ccccc21`, for which the IC50 result was “inactive”.

For the compound `Cc1cc2oc(=O)cc(CSc3nc4ccccc4c(=O)[nH]3)c2cc1Cl`, the IC50 is > 55.7 µM (inactive).

`COc1cccc(NC(=O)C(c2ccccc2)N2CCN(S(=O)(=O)c3ccc(C)cc3)CC2)c1` (centres undefined): the IC50 was > 55.7 µM (inactive).

These data come from PubChem BioAssay AID2771 (The Scripps Research Institute Molecular Screening Center, 2010).
